We go through one compound from publication PMC11053681, “Gold(I) and Silver(I) Complexes Containing Hybrid Sulfonamide/Thiourea Ligands as Potential Leishmanicidal Agents” (Pharmaceutics, 2024).

Each structure is given as a SMILES string. “Also recorded” adds a separate entry of the source.

A short description of data set [1]: Solubility in buffer for the fluorescence experiments. The data set is classed as physicochemical. As to conditions: Tris-HCl buffer. The method in brief: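 Compounds dissolved in DMSO and diluted in 25 mmol L^−1 Tris-HCl, pH 8.0, 100 mmol L^−1 NaCl, final DMSO 2.5%. Increasing ligand with 1 µmol L^−1 LbOYE held 1 h at 25 °C before fluorescence emission spectra were recorded.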

Data set [2] deals with LbOYE (Leishmania braziliensis, UniProt A4H6Z3). Description: LbOYE enzyme kinetics (NADPH decay at 340 nm). The data set is classed as biochemical. As to conditions: 20 µmol L^−1 compound, 1 µmol L^−1 LbOYE, 100 µmol L^−1 NADPH; substrates NEM and O2. The protocol:
The initial rates were obtained through the decay of the band at 340 nm referring to the maximum absorption of the NADPH (Nicotinamide Adenine Dinucleotide Phosphate) reducer, as previously reported. Solutions containing 1 µmol L^−1 of LbOYE, DMSO or 20 µmol L^−1 of the tested compounds from a stock solution at a concentration of 5 mmol L^−1 in DMSO were prepared in the presence and absence of the substrate N-Ethylmaleimide (NEM). These solutions were left for 30 min at room temperature. After 30 min, the NADPH reducer was added at a final concentration of 100 µmol L^−1.
Figure 7 Initial velocity (V0) for the reaction between 1 µmol L^−1 of LbOYE and 100 µmol L^−1 of NADPH in the presence of DMSO (control) or 20 µmol L^−1 of the compounds tested. Using (A) 100 µmol L^−1 of NEM in the presence of O2 and (B) absence of NEM in the presence of O2. Experiments carried out in phosphate buffer 25 mmol L^−1 pH 7.0, NaCl 100 mmol L^−1.

In data set [3] the test system is Leishmania braziliensis. Description: Leishmanicidal activity against promastigotes (resazurin). The data set is classed as cell-based. The gist of the method:
(§1)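 Stationary-phase (day 5) metacyclic promastigotes were purified by centrifugation and plated at 1 × 10^7 parasites per well in Schneider medium. Compounds were tested in triplicate from 500 µM down to 3.9 µM by serial dilution for 24 h. Viability was read by resazurin fluorescence.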
(In general: Alamar Blue is a resazurin reagent that responds to reducing activity.)

Data set [4] deals with Leishmania infantum. The description is as above. The data set is classed as cell-based. Particulars: promastigote form, 24 h treatment, resazurin; read-out: IC50 L. infantum. The method in brief:
as §1

The test system of data set [5] is RAW macrophages infected with Leishmania infantum. Briefly: Infectivity test / infection rate in RAW macrophages. The data set is classed as cell-based. As to conditions: three concentrations (below IC50, IC50, above IC50), 24 h treatment. The protocol: For the infection of RAW macrophages adhered to the plates, we used parasites in the promastigote form of Leishmania infantum, in the stationary phase, in a ratio of 10:1 (promastigotes/macrophages).
Macrophages were plated in the amount of 5 × 10^4 cells per well, in 96-well plates, which were kept in a CO2 oven at 37 °C for 24 h. The parasites were plated at a concentration of 10:1. The plates were kept in a CO2 oven for 12 h until the parasites infected the cells. […] Plates were fixed with paraformol for further evaluation. Plaques were evaluated by counting parasites within 200 cells under the EVOS Cell Imaging System (Thermo Scientific, Waltham, MA, USA) microscope by staining with propidium iodide.
In view of the data obtained, the six most promising compounds (HL1^Ch, HL2^Ph, Ag3, Ag4, Ag6 and Au2) were selected for carrying out the infection rate test against the L. infantum parasite. […] This test was performed at four stages. The first step determined the percentage of the amount in 200 infected macrophages per parasite, the second determined the percentage of parasites that infects 100 cells/macrophages, the third determined the average percentage of parasites that infects 200 cells/macrophages and, finally, the fourth step indicated the infection rate, that is, the result of the amount of Leishmania per macrophage (obtained from the third step) multiplied by the percentage of infected macrophages. Figure 5 presents the graphs of the infection rates, while the other graphs can be found in Figure S7.4.

By IC50 is commonly meant the concentration that inhibits the measured activity by half.

Sequence of LbOYE (A4H6Z3 entry or part of it): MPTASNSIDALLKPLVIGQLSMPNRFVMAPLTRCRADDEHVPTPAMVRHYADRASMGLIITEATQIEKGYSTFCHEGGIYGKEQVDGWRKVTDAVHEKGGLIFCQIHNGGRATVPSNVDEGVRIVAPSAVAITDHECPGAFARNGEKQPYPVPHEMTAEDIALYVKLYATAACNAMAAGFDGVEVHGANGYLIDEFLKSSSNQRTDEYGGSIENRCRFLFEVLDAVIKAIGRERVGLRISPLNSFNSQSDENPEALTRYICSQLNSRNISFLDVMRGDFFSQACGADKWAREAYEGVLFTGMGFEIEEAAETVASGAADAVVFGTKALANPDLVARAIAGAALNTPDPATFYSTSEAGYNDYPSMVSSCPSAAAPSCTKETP

For the compound `Cc1ccc(S(=O)(=O)NNC(Nc2ccc(F)cc2)=[S][Ag+][S]=C(NNS(=O)(=O)c2ccc(C)cc2)Nc2ccc(F)cc2)cc1.O=[N+]([O-])[O-]` [Ag3, [Ag(HL3^FPh)2]NO3], in data set [1], the “Solubility in buffer at the concentrations for the fluorescence experiments, in words” value is “passed this stage”. Moreover, the “Inhibition of LbOYE reaction (initial velocity V0), in words” value in data set [2] was “capable of inhibiting the reaction of the enzyme both with the NEM and for O2”. Also, the IC50 in data set [3] (promastigote form, 24 h treatment, resazurin, read-out: IC50 L. braziliensis) came out at 233.9 ± 0.031 µM; in data set [4], 92.83 ± 0.072 µM. In data set [3] (selectivity index = CC50 (Vero) / IC50 (L. braziliensis promastigotes)), the “SI L. braziliensis” value is on record as more than 2.14. Besides, in data set [5], the “Infection rate of L. infantum in macrophages, in words” value is “able to inhibit the parasite infection inside the cells even at lower concentrations than that determined by their IC50 values; also recorded: able to inhibit the parasite infection even at lower concentrations than that of their IC50 values”.
